In US12049450B2, “Pyridyloxy-carboxylate derivative and preparation method therefor, herbicidal composition, and use” (Qingdao Kingagroot Chemical Compound Co., Ltd., priority 2018, dated 2024):

Experiments:
Test in all cases: Post-emergence test experiment (greenhouse pot, spray at 2-3 leaf stage)
Assay type in all cases: in vivo
Conditions in all cases: 1000 g/ha; post-emergence spray at 2-3 leaf stage; assessed after 3 weeks; fresh weight inhibition rate
Digitaria sanguinalis = system: Digitaria sanguinalis
How it was run: (§1)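 Activity graded levels 0-5 by fresh-weight inhibition (level 5 above 85%, level 0 below 5%), assessed 3 weeks after treatment. Plants grown in greenhouse pots were sprayed post-emergence at 2-3 leaves using acetone/tween-80 solutions with methyl oleate synergist (1.5 L/ha).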

Echinochloa crusgalli = system: Echinochloa crusgalli
How it was run: as §1

Galium spurium = system: Galium spurium
How it was run: as §1

Abutilon theophrasti = system: Abutilon theophrasti
How it was run: as §1

Monochoria vaginalis = system: Monochoria vaginalis
How it was run: as §1

CC(Oc1nc(F)c(Cl)c(N)c1Cl)C(=O)SCc1cccc(Br)c1 (centres unmarked) [Compound 230]
Activity level (growth inhibition rate) Digitaria sanguinalis (Digitaria sanguinalis): 5 (Level 5: the growth inhibition rate is greater than 85%)
Activity level (growth inhibition rate) Echinochloa crusgalli (Echinochloa crusgalli): 5 (Level 5: the growth inhibition rate is greater than 85%)
Activity level (growth inhibition rate) Galium spurium (Galium spurium): 5 (Level 5: the growth inhibition rate is greater than 85%)
Activity level (growth inhibition rate) Abutilon theophrasti (Abutilon theophrasti): 5 (Level 5: the growth inhibition rate is greater than 85%)
Activity level (growth inhibition rate) Monochoria Vaginalis (Monochoria vaginalis): 5 (Level 5: the growth inhibition rate is greater than 85%)

CC(Oc1nc(F)c(Cl)c(N)c1Cl)C(=O)OCc1cnccn1 (centres unmarked) [Compound 121]
Activity level (growth inhibition rate) Digitaria sanguinalis (Digitaria sanguinalis): 5 (Level 5: the growth inhibition rate is greater than 85%)
Activity level (growth inhibition rate) Echinochloa crusgalli (Echinochloa crusgalli): 5 (Level 5: the growth inhibition rate is greater than 85%)
Activity level (growth inhibition rate) Galium spurium (Galium spurium): 5 (Level 5: the growth inhibition rate is greater than 85%)
Activity level (growth inhibition rate) Abutilon theophrasti (Abutilon theophrasti): 5 (Level 5: the growth inhibition rate is greater than 85%)
Activity level (growth inhibition rate) Monochoria Vaginalis (Monochoria vaginalis): 5 (Level 5: the growth inhibition rate is greater than 85%)

CC(Oc1nc(F)c(Cl)c(N)c1Cl)C(=O)OCc1ccc2c(c1)OCCO2 (centres unmarked) [Compound 189]
Activity level (growth inhibition rate) Digitaria sanguinalis (Digitaria sanguinalis): 5 (Level 5: the growth inhibition rate is greater than 85%)
Activity level (growth inhibition rate) Echinochloa crusgalli (Echinochloa crusgalli): 5 (Level 5: the growth inhibition rate is greater than 85%)
Activity level (growth inhibition rate) Galium spurium (Galium spurium): 5 (Level 5: the growth inhibition rate is greater than 85%)
Activity level (growth inhibition rate) Abutilon theophrasti (Abutilon theophrasti): 5 (Level 5: the growth inhibition rate is greater than 85%)
Activity level (growth inhibition rate) Monochoria Vaginalis (Monochoria vaginalis): 5 (Level 5: the growth inhibition rate is greater than 85%)

CC(Oc1nc(F)c(Cl)c(N)c1Cl)C(=O)OCc1nc2ccccc2s1 (centres unmarked) [Compound 178]
Activity level (growth inhibition rate) Digitaria sanguinalis (Digitaria sanguinalis): 5 (Level 5: the growth inhibition rate is greater than 85%)
Activity level (growth inhibition rate) Echinochloa crusgalli (Echinochloa crusgalli): 5 (Level 5: the growth inhibition rate is greater than 85%)
Activity level (growth inhibition rate) Galium spurium (Galium spurium): 5 (Level 5: the growth inhibition rate is greater than 85%)
Activity level (growth inhibition rate) Abutilon theophrasti (Abutilon theophrasti): 5 (Level 5: the growth inhibition rate is greater than 85%)
Activity level (growth inhibition rate) Monochoria Vaginalis (Monochoria vaginalis): 5 (Level 5: the growth inhibition rate is greater than 85%)

CC(Oc1nc(F)c(Cl)c(N)c1Cl)C(=O)OCc1cccs1 (centres unmarked) [Compound 214]
Activity level (growth inhibition rate) Digitaria sanguinalis (Digitaria sanguinalis): 5 (Level 5: the growth inhibition rate is greater than 85%)
Activity level (growth inhibition rate) Echinochloa crusgalli (Echinochloa crusgalli): 5 (Level 5: the growth inhibition rate is greater than 85%)
Activity level (growth inhibition rate) Galium spurium (Galium spurium): 5 (Level 5: the growth inhibition rate is greater than 85%)
Activity level (growth inhibition rate) Abutilon theophrasti (Abutilon theophrasti): 5 (Level 5: the growth inhibition rate is greater than 85%)
Activity level (growth inhibition rate) Monochoria Vaginalis (Monochoria vaginalis): 5 (Level 5: the growth inhibition rate is greater than 85%)

CC(Oc1nc(F)c(Cl)c(N)c1Cl)C(=O)OCc1ccc(C2CC2)cc1 (centres unmarked) [Compound 74]
Activity level (growth inhibition rate) Digitaria sanguinalis (Digitaria sanguinalis): 5 (Level 5: the growth inhibition rate is greater than 85%)
Activity level (growth inhibition rate) Echinochloa crusgalli (Echinochloa crusgalli): 5 (Level 5: the growth inhibition rate is greater than 85%)
Activity level (growth inhibition rate) Galium spurium (Galium spurium): 5 (Level 5: the growth inhibition rate is greater than 85%)
Activity level (growth inhibition rate) Abutilon theophrasti (Abutilon theophrasti): 5 (Level 5: the growth inhibition rate is greater than 85%)
Activity level (growth inhibition rate) Monochoria Vaginalis (Monochoria vaginalis): 5 (Level 5: the growth inhibition rate is greater than 85%)

CSc1cccc(COC(=O)C(C)Oc2nc(F)c(Cl)c(N)c2Cl)c1 (centres unmarked) [Compound 92]
Activity level (growth inhibition rate) Digitaria sanguinalis (Digitaria sanguinalis): 5 (Level 5: the growth inhibition rate is greater than 85%)
Activity level (growth inhibition rate) Echinochloa crusgalli (Echinochloa crusgalli): 5 (Level 5: the growth inhibition rate is greater than 85%)
Activity level (growth inhibition rate) Galium spurium (Galium spurium): 5 (Level 5: the growth inhibition rate is greater than 85%)
Activity level (growth inhibition rate) Abutilon theophrasti (Abutilon theophrasti): 5 (Level 5: the growth inhibition rate is greater than 85%)
Activity level (growth inhibition rate) Monochoria Vaginalis (Monochoria vaginalis): 5 (Level 5: the growth inhibition rate is greater than 85%)
